Measurements as given in patent US12329738B2, “Urolithin A and a composition containing same for external use in inflammations of various etiologies” (WARSZAWSKI UNIWERSYTET MEDYCZNY, priority 2018, dated 2025).

Columns and labels:
[1] = tested on: TNF-alpha; test: TNF-alpha production by THP-1 derived macrophages (ELISA); type: cell-based, human; conditions: 40 μM; LPS stimulation; FIG. 13
Procedure: (§1) Monocytes of the THP-1 line were cultured in RPMI 1640 medium supplemented with 10% FBS and 2 mM glutamine. For transformation of monocytes into macrophages, the cells were treated with 12.5 ng/mL PMA (phorbol 12-myristate 13-acetate) for 48 hours, then washed and incubated for 24 hours in a culture medium without PMA. After this time, urolithin A, urolithin B, iso-urolithin A and the corresponding glucuronides (GUA, GUB and GiUA) were added to the cells at a concentration of 40 μM. After 1 hour of incubation with the compounds, the cells were stimulated with LPS from Escherichia coli (10 ng/mL).
(§2) To assess the level of TNF-alpha production, the cells were incubated for 6 hours, to assess the expression of mRNA for TNF-alpha, the cells were incubated for 24 hours, to assess the effect on ERK1/2 phosphorylation, the cells were incubated for 35 minutes.
(§3) The level of TNF-alpha in the culture medium was determined using the immunochemical ELISA method (BD biosciences). Evaluation of the expression of mRNA for TNF-alpha was performed using real time PCR. After 24 hours of incubation, RNA was isolated using NucleoSpin RNA Clean-up (Macherey-Nagel). The amount and quality of isolated RNA was determined using 2100 Bioanalyzer (Agilent Technologies). The expression level of mRNA for TNF-α was determined using Brilliant II SYBR Green QPCR Kit and Aria Mx Real-Time PCR thermocycler (Agilent Technologies). The following were used as primers for TNF-alpha: forward: 5′-[…]-3′, reverse: 5′-[…]-3′. Beta-actin (ACTB) was used as the housekeeping gene; primer forward: 5′-[…]-3′, reverse: 5′-[…]-3′).
(§4) The obtained results of experiments on in vitro models were analyzed using the Statistica 13 program (StatSoft, Inc., Tulsa, OK, USA) and presented as mean values±SEM. Statistical significance was set at P≤0.05. The results with established normal distribution in the D'Agostin and Pearson test were prepared using analysis of variance (ANOVA). Parametric post-hoc analysis was performed using Dunnett's test.

[2] = tested on: Wistar rats (DNCB-induced atopic dermatitis); test: Ear thickness (edema) in DNCB-induced atopic dermatitis rat model; type: in vivo
Procedure: It is similar to the indications for use of hydrocortisone, which was used as a positive control in the study. Urolitin A was obtained by synthesis according to Bialonska et al. (Bialonska et al., 2009) or purchased from Sigma-Aldrich. The ointment containing urolithin A was prepared by emulsifying the weighed substance into a solid vehicle (white petrolatum) using an unguator. Wistar rats aged 5-6 weeks (at the start of the experiment) kept under standard conditions with free access to feed and water were used for the tests. The animals were divided into 5 groups, 8 individuals in each group. To prepare 2,4-dinitrochlorobenzene (DNCB) composition inducing inflammation, DNCB was dissolved in 70% ethanol to a final concentration of 1.5% (w/v). Therapeutic composition was an ointment based on white petrolatum with 0.2% or 1.0% urolithin A added. The control ointment was white petrolatum without addition of urolithin A. The induction of chronic atopic dermatitis involved local 9-fold infiltration with 60 μl 1.5% 2,4-dinitrochlorobenzene (DNCB) on each (external and internal) surface of the right ear over 3 weeks (3 times a week). Negative control was the right ear of rats without induction inflammation. Treatment of atopic dermatitis with 0.2% or 1.0% urolithin composition and white petrolatum (control) or 1.0% hydrocortisone composition (positive control) was started eight days after sensitization—one day before the fourth application of DNCB. Ointments with appropriate for given group drug added were applied in a total volume of about 20 μl to each ear surface one day before and 6 hours after each DNCB application (for a period of 3 weeks). The negative control group consisted of rats without induced inflammation and treated with white petrolatum in a regimen analogous to the composition of urolithin A or hydrocortisone. Ear thickness was assessed using an electronic mini caliper the day before inflammation was induced (day 0) and then on days 4 and 8 prior to treatment and on days 4, 8, 12, 16, […] of therapy with urolithin A composition (on days 12, 16, 20, 24, 28 and 32 after inflammation inducing, respectively). The experimental results obtained were analyzed using the Statistica 7.1 program (StatSoft, Inc., Tulsa, OK, USA) and presented as mean values±SE. Statistical significance was set at P≤0.05. The results with established normal distribution in the D'Agostin and Pearson test were prepared using two- or three-factor analysis of variance (ANOVA). Parametric post-hoc analysis for individual time points was performed using the Bonferroni test.

[3] = tested on: Wistar rats (DNCB-induced atopic dermatitis); test: Pruritus level (scratch reflexes) in DNCB-induced atopic dermatitis rat model; type: in vivo; conditions: topical ointment; urolithin A 0.2 and 1.0% (p<0.001), hydrocortisone 1% (p<0.01)
Procedure: Wistar rats aged 5-6 weeks (at the start of the experiment) kept under standard conditions with free access to feed and water were used for the tests. The animals were divided into 5 groups, 8 individuals in each group. To prepare 2,4-dinitrochlorobenzene (DNCB) composition inducing inflammation, DNCB was dissolved in 70% ethanol to a final concentration of 1.5% (w/v). Therapeutic composition was an ointment based on white petrolatum with 0.2% or 1.0% urolithin A added. The control ointment was white petrolatum without addition of urolithin A. The induction of chronic atopic dermatitis involved local 9-fold infiltration with 60 μl 1.5% 2,4-dinitrochlorobenzene (DNCB) on each (external and internal) surface of the right ear over 3 weeks (3 times a week). Negative control was the right ear of rats without induction inflammation. Treatment of atopic dermatitis with 0.2% or 1.0% urolithin composition and white petrolatum (control) or 1.0% hydrocortisone composition (positive control) was started eight days after sensitization—one day before the fourth application of DNCB. Ointments with appropriate for given group drug added were applied in a total volume of about 20 μl to each ear surface one day before and 6 hours after each DNCB application (for a period of 3 weeks). The negative control group consisted of rats without induced inflammation and treated with white petrolatum in a regimen analogous to the composition of urolithin A or hydrocortisone. Measurement of pruritus level (as measured by scratching reflexes) was evaluated as the total frequency of scratch reflexes during 10 minutes immediately after DNCB application on days 0, 4, 8, 12, 16, 20, 24, 28 and 32 of the experiment). Scratching was defined as a single or series of several reflexes of scratching with a paw directed at the site of DNCB application. The experimental results obtained were analyzed using the Statistica 7.1 program (StatSoft, Inc., Tulsa, OK, USA) and presented as mean values±SE. Statistical significance was set at P≤0.05. The results with established normal distribution in the D'Agostin and Pearson test were prepared using two- or three-factor analysis of variance (ANOVA). Parametric post-hoc analysis for individual time points was performed using the Bonferroni test.

[4] = tested on: Wistar rats (DNCB-induced atopic dermatitis); test: Peripheral blood morphology in DNCB-induced atopic dermatitis rat model; type: in vivo
Procedure: Wistar rats aged 5-6 weeks (at the start of the experiment) kept under standard conditions with free access to feed and water were used for the tests. The animals were divided into 5 groups, 8 individuals in each group. To prepare 2,4-dinitrochlorobenzene (DNCB) composition inducing inflammation, DNCB was dissolved in 70% ethanol to a final concentration of 1.5% (w/v). Therapeutic composition was an ointment based on white petrolatum with 0.2% or 1.0% urolithin A added. The control ointment was white petrolatum without addition of urolithin A.
The induction of chronic atopic dermatitis involved local 9-fold infiltration with 60 μl 1.5% 2,4-dinitrochlorobenzene (DNCB) on each (external and internal) surface of the right ear over 3 weeks (3 times a week). Negative control was the right ear of rats without induction inflammation.
Treatment of atopic dermatitis with 0.2% or 1.0% urolithin composition and white petrolatum (control) or 1.0% hydrocortisone composition (positive control) was started eight days after sensitization—one day before the fourth application of DNCB. Ointments with appropriate for given group drug added were applied in a total volume of about 20 μl to each ear surface one day before and 6 hours after each DNCB application (for a period of 3 weeks). The negative control group consisted of rats without induced inflammation and treated with white petrolatum in a regimen analogous to the composition of urolithin A or hydrocortisone.
2 mL blood samples were drawn into syringes (containing heparin as an anticoagulant) from the heart under general anesthesia (isoflurane) on day 32 of the experiment. The test was conducted using the DIATRON automated hematology analyzer. Peripheral blood analysis included the assessment of morphotic elements in blood: erythrocytes, leukocytes and thrombocytes and determination of the number and percentage of different types of leukocytes—WBC as well as values of erythrocyte indicators: hemoglobin (HGB), hematocrit (HCT), mean corpuscular volume (MCV), mean corpuscular hemoglobin (MCH) and mean corpuscular hemoglobin concentration (MCHC).
The experimental results obtained were analyzed using the Statistica 7.1 program (StatSoft, Inc., Tulsa, OK, USA) and presented as mean values±SE. Statistical significance was set at P≤0.05. The results with established normal distribution in the D'Agostin and Pearson test were prepared using two- or three-factor analysis of variance (ANOVA). Parametric post-hoc analysis for individual time points was performed using the Bonferroni test.

[5] = tested on: ERK1/2; test: ERK1/2 phosphorylation in THP-1 derived macrophages (Western blotting); type: cell-based, human; conditions: 40 μM; LPS 10 ng/mL, 35 min; FIG. 15
Procedure: Monocytes of the THP-1 line were cultured in RPMI 1640 medium supplemented with 10% FBS and 2 mM glutamine. For transformation of monocytes into macrophages, the cells were treated with 12.5 ng/mL PMA (phorbol 12-myristate 13-acetate) for 48 hours, then washed and incubated for 24 hours in a culture medium without PMA. After this time, urolithin A, urolithin B, iso-urolithin A and the corresponding glucuronides (GUA, GUB and GiUA) were added to the cells at a concentration of 40 μM. After 1 hour of incubation with the compounds, the cells were stimulated with LPS from Escherichia coli (10 ng/mL). To assess the level of TNF-alpha production, the cells were incubated for 6 hours, to assess the expression of mRNA for TNF-alpha, the cells were incubated for 24 hours, to assess the effect on ERK1/2 phosphorylation, the cells were incubated for 35 minutes. […] The obtained results of experiments on in vitro models were analyzed using the Statistica 13 program (StatSoft, Inc., Tulsa, OK, USA) and presented as mean values±SEM. Statistical significance was set at P≤0.05. The results with established normal distribution in the D'Agostin and Pearson test were prepared using analysis of variance (ANOVA). Parametric post-hoc analysis was performed using Dunnett's test.

[6] = tested on: mRNA for TNF-alpha; test: TNF-alpha mRNA expression in THP-1 derived macrophages (real time PCR); type: cell-based, human; conditions: 40 μM; LPS stimulation; FIG. 14
Procedure: as §1, §2, §3, §4

[7] = tested on: TNF-alpha; test: TNF-alpha production by macrophages from human peripheral blood monocytes (ELISA); type: cell-based; conditions: 40 μM; LPS 100 ng/mL, 24 h; FIG. 16
Procedure: Monocytes were isolated from peripheral human blood by a standard method using dextran sedimentation and Ficoll Hypaque gradient centrifugation. After isolation, monocytes were suspended in RPMI 1640 medium supplemented with L-glutamine, HEPES, streptomycin, amphotericin and gentamicin, and 20% autologous serum. Cell culture was carried out under these conditions for 7 days. […] After 24h, TNF-alpha level in the medium was determined using the immunochemical ELISA method (BD biosciences). The obtained results of experiments on in vitro models were analyzed using the Statistica 13 program (StatSoft, Inc., Tulsa, OK, USA) and presented as mean values±SEM. Statistical significance was set at P≤0.05. The results with established normal distribution in the D'Agostin and Pearson test were prepared using analysis of variance (ANOVA). Parametric post-hoc analysis was performed using Dunnett's test.

[8] = day 32, 1% hydrocortisone, urolithin A 0.2 and 1%

## CC(=O)Oc1ccc2c(c1)oc(=O)c1ccccc12 [3-acetyl-urolithin B, reference compound]
[1]
  TNF-alpha production by THP-1 derived macrophages: did not show any activity

## O=C(O)[C@H]1O[C@@H](Oc2ccc3c(c2)oc(=O)c2ccccc23)[C@H](O)[C@@H](O)[C@@H]1O [GUB, urolitin B 3-O-glucuronide]
[1]
  TNF-alpha production by THP-1 derived macrophages: did not show any activity

## O=C(O)[C@H]1O[C@@H](Oc2ccc3c(c2)oc(=O)c2ccc(O)cc23)[C@H](O)[C@@H](O)[C@@H]1O [GiUA, Iso-urolithin A 3-O-glucuronide]
[1]
  TNF-alpha production by THP-1 derived macrophages: did not show any activity

## C[C@]12CCC(=O)C=C1CC[C@@H]1[C@@H]2[C@@H](O)C[C@@]2(C)[C@H]1CC[C@]2(O)C(=O)CO [hydrocortisone]
[2]; initial period of therapy (up to 12 days)
  Time profile of anti-edema effect, urolithin A vs. hydrocortisone: greater therapeutic effectiveness
[2]; topical ointment in white petrolatum, urolithin A 0.2 and 1.0%, hydrocortisone 1%, urolithin A p<0.001, hydrocortisone p<0.01
  Ear edema (ear thickness) after local therapy: reduced
[3]
  Scratching rate (frequency of scratch reflexes): reduction in scratching rate
[4]; 1% composition, day 32, vs petrolatum, hydrocortisone p<0.05, urolithin A p<0.01
  WBC (leukocyte) level: significant reduction in WBC
[4]; 1% hydrocortisone, urolithin A 0.2 and 1%
  Final WBC values compared to negative control (without atopic dermatitis): remained at a higher level compared to negative control groups
[4]; day 32
  MPV (fl), PDW (fl), PDWcv (%): did not change
  RBC, HGB, HCT, MCV: no changes
[4]; day 32, 1% composition, vs negative control, p<0.01
  Thrombocrit (PCT %): significantly higher values compared to the negative control group
[4]; day 32, 1% composition, vs negative control, p<0.05
  Number of thrombocytes (PLT): significantly higher values compared to the negative control group
[4]; day 32, 1% hydrocortisone (p<0.05), urolithin A 0.2 and 1.0%
  Concentration of hemoglobin in erythrocytes (MCH and MCHC): decrease in the concentration of hemoglobin in erythrocytes
[4]; day 32, 1% hydrocortisone, p<0.05
  RDW parameter level: decrease in the RDW parameter level
[4]; [8]
  Monocyte population: reducing the population of monocytes and neutrophils
  Neutrophil population: reducing the population of monocytes and neutrophils
[4]; day 32, 1% hydrocortisone, urolithin A 0.2 and 1%, vs petrolatum
  Lymphocyte level: no significant differences

## O=c1oc2cc(O)ccc2c2cc(O)ccc12 [iso-urolithin A]
[5]
  ERK1/2 kinase phosphorylation in THP-1 derived macrophages: much less active
[6]
  TNF-alpha mRNA expression in THP-1 derived macrophages: stimulated mRNA expression
[1]
  TNF-alpha production by THP-1 derived macrophages: stimulated the production of TNF-alpha
[7]
  Inhibition of TNF-alpha production by macrophages from human peripheral blood monocytes: significantly less active

## urolitin A 3-O-glucuronide and urolitin A 8-O-glucuronide [GUA]
[1]
  TNF-alpha production by THP-1 derived macrophages: did not show any activity
